The values that follow come from patent US10314838B2, “Compositions of buprenorphine and μ antagonists” (priority 2011, dated 2019).

A short description of data set [1]: Rat plasma Cmax of antagonists given with buprenorphine. Particulars: male, sc.
Protocol: Male rats weighing between 300-400 grams, the same weight range used in the microdialysis studies, were used for these PK experiments. […] Sample of blood were collected at 5, 15, 30, 60 and 120 minutes post dosing. […] The collection tubes were inverted 10-15 times and then held on ice prior to centrifugation.
Data set [2] relates to NAc-sh dopamine and 5-HIAA. Kind of data set: NAc-sh dopamine and 5-HIAA in WKY rats undergoing forced swim test. The data set is classed as in vivo, rat. Particulars: highest dose of Compound 1, buprenorphine 0.1 mg/kg, WKY rats in FST. The method, then: FIG. 6: The effect of Compound-1 on dopamine efflux in WKY rats undergoing forced swim test after treatment with Buprenorphine (0.1 mg/kg).
FIG. 7: The efflux of Compound-1 on 5-Hydroxyindoleacetic acid (5-HIAA) release in WKY rats undergoing the forced swim test after treatment with Buprenorphine (0.1 mg/kg).

A further data set addresses T1, human μ opioid receptor (Homo sapiens, UniProt P35372).
T1 construct: expressed in transfected cells; membranes used
Kind of data set: biochemical. Here is the method: Other functional assays could also be used based on cAMP or other downstream end-points following receptor activation; however the GTPγS is the preferred approach. […] Since the AAnAI is based on Cmax it can be calculated for any route of administration for the combination.
These values were determined using the GTPγS functional assay.
The [^35S]GTPγS assay measures the functional properties of a compound by quantifying the level of G-protein activation following agonist binding in studies using stably transfected cells, and is considered to be a measure of the efficacy of a compound. Membranes from CHO (Chinese Hamster Ovary) cells that stably expressed the cloned human μ opioid receptor were used in the experiments. […] The assay buffer consisted of 50 mM Tris-HCl, pH 7.4, 3 mM MgCl2, 0.2 mM EGTA, 3 μM GDP, and 100 mM NaCl. The final concentration of [35S]GTPγS was 0.080 nM. Nonspecific binding was measured by inclusion of 10 μM GTPγS. Binding was initiated by the addition of the membranes. After an incubation of 60 min at 30° C., the samples were filtered through Schleicher & Schuell No. 32 glass fiber filters. The filters were washed three times with cold 50 mM Tris-HCl, pH 7.5, and were counted in 2 mL of Ecoscint scintillation fluid.

Data set [3] can be described thus: Plasma Cmax in patients (LC/MS/MS). Particulars: human, 8 mg.
Protocol: Samples were analyzed using a 50 μL aliquot volume and a protein-precipitation extraction procedure followed by liquid chromatography/tandem mass spectrometry (LC/MS/MS).
Samples were analyzed using a 400 μL aliquot volume and a solid-phase extraction procedure followed by liquid chromatography/tandem mass spectrometry (LC/MS/MS).
For data set [4], the system named is dopamine efflux in the Nucleus Accumbens shell (NAc-sh). Kind of data set: In vivo microdialysis, buprenorphine-induced dopamine efflux. Particulars: antagonist plus buprenorphine 0.1 mg/kg SC.
Protocol: Experiments were conducted in rats to assess the ability of opioid antagonists to modulate buprenorphine-induced dopamine efflux in the Nucleus Accumbens shell (NAc-sh) region of the mesolimbic region of the brain. Male rats weighing 300-400 grams were used for all studies. To measure the efflux of dopamine in the NAc-sh an in vivo microdialysis method was utilized in free-moving rats. This method allows the sampling of extracellular cerebrospinal fluid (CSF) from specific brain regions of interest and measurement of neurotransmitter concentrations following the analysis of sampled dialysate with HPLC-EC.
Each rat underwent surgical implantation of microdialysis guide cannula (CMA 12, CMA Microdialysis) to facilitate the insertion of the microdialysis probe later on. Rats were anesthetized with a mixture of ketamine/xylazine (80/6 mg/kg IP) and placed in a stereotaxic apparatus. […] Guide cannula were capped with dummy probes until microdialysis probe insertion. On the day prior to experimentation (3-4 days post-surgery), animals were weighed to determine appropriate dose for test articles. A microdialysis probe (CMA 12, 2 mm membrane, CMA microdialysis) was then inserted through the guide cannula. […] Each sample was analyzed via HPLC-EC to determine neurotransmitter concentration of dopamine based upon a six-point standard curve.
For data set [5] the following is noted: 50 mg dose of naltrexone; cited from earlier work.

Usually Cmax stands for the highest concentration seen after dosing. A word on the IC50: it is the concentration that gives 50% inhibition.

Like-named read-outs stand apart in the source and are kept apart here. Some results are limits rather than exact numbers.

T1 sequence (P35372 whole entry): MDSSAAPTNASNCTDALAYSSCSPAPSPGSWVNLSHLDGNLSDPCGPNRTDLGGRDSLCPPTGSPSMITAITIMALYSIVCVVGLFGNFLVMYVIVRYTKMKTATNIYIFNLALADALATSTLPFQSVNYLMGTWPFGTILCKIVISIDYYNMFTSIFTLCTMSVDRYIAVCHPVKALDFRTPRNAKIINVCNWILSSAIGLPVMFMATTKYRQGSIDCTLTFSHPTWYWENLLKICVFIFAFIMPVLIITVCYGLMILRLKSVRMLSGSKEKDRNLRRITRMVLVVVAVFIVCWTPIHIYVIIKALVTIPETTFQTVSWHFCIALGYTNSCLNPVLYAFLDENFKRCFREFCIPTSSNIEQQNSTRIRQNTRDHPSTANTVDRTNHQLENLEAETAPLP

Regarding `NC(=O)c1ccc2c(c1O)[C@]13CCN(CC4CC4)[C@H](C2)[C@]1(O)CCC(=O)C3` [Compound-1], the Cmax in data set [1] (0.3 mg/kg) is 11.8 ng/mL; in data set [1] (1 mg/kg), 75.5 ng/mL; in data set [3], 25.8 ng/mL; in data set [3] (other: sublingual), 69.6 nM. For the same compound, the “Buprenorphine effect on 5-HIAA” value in data set [2] is listed as “complete attenuation of buprenorphine effects”. Besides, the “Buprenorphine effect on NAc-sh dopamine” value in data set [2] was “complete attenuation of buprenorphine effects”. For the same compound, the IC50 at human μ opioid receptor was 0.9 nM. On human μ opioid receptor, the Imax is recorded as above 95%.
As to `C=C1CC[C@@]2(O)[C@H]3Cc4ccc(C(N)=O)c(O)c4[C@@]2(CCN3CC2CC2)C1` [Compound-10], the Cmax in data set [1] (0.03 mg/kg) was 2.24 ng/mL; in data set [1] (0.1 mg/kg), 18.1 ng/mL; in data set [1] (0.3 mg/kg) it was 29.5 ng/mL. Moreover, the IC50 at human μ opioid receptor came to 0.23 nM.
`C=C1CC[C@@]2(O)[C@H]3Cc4ccc(O)c5c4[C@@]2(CCN3CC2CC2)[C@H]1O5` [Nalmefene, nalmefene]: the Cmax stood at 14.1 ng/mL in data set [1] (0.1 mg/kg), 25.6 ng/mL in data set [1] (0.3 mg/kg) and 162 ng/mL in data set [1] (1 mg/kg). The “NAc-sh dopamine efflux induced by buprenorphine” value in data set [4] is given as “more potent”.
Take `O=C1CC[C@@]2(O)[C@H]3Cc4ccc(O)c5c4[C@@]2(CCN3CC2CC2)[C@H]1O5` [Naltrexone, naltrexone]: the Cmax in data set [1] (0.1 mg/kg) was 19.3 ng/mL; in data set [1] (0.3 mg/kg) it was 76.9 ng/mL; in data set [1] (1 mg/kg), 169 ng/mL; in data set [5] it was “approximately 10 ng/mL”.
